Experiments:
round worms [1] = assay: Treatment of swine via drinking water, fecal examinations pre and post treatment; assay type: in vivo; details: 1000 100-pound pigs, 5 percent solution in 10 gallons of water stock solution
Description: This is 20 mg per 100 pounds or 200 ug per pound.

foul mites = assay: Treatment of a poultry flock via drinking water, mites; assay type: in vivo; details: 10000 head flock, 5 percent concentration mixture in water, administered over 12 hours, 180 ug per kg
Description: (§1) 400 cc of a 5 percent concentration mixture was added to 5 gallons of water to form a stock solution that was administered over 12 hours at a dose of 180 ug per kg.

[2] = cited from earlier work
round worms [3] = assay: Treatment of a poultry flock via drinking water, round worms; assay type: in vivo; details: 10000 head flock, 5 percent concentration mixture in water, administered over 12 hours, 180 ug per kg
Description: as §1

[4] = cited from earlier work; remark: listed apart in the source
[5] = room temperature; cited from earlier work

Compound: CC[C@H](C)[C@H]1O[C@]2(CC[C@@H]1C)C[C@@H]1C[C@@H](C/C=C(\C)C(O[C@H]3C[C@H](OC)[C@@H](O[C@H]4C[C@H](OC)[C@@H](O)[C@H](C)O4)[C@H](C)O3)[C@@H](C)/C=C/C=C3\CO[C@@H]4[C@H](O)C(C)=C[C@@H](C(=O)O1)[C@]34O)O2 (stereo partly drawn) [Ivermectin, 22,23 dihydroavermectin Bla]
- reduction in round worms based on fecal examinations (round worms [1]): 98%
- elimination of mites from the birds (foul mites): 100%
- bound to plasma proteins [2]: about 93%
- elimination of worms from the birds (round worms [3]): 100%
- apparent volume of distribution ([4]; adults): about 47 liters
- systemic clearance ([4]; adults): about 1.2 liters/hour
- terminal half-life ([4]; adults): about 27 hours
- time to peak levels in plasma ([4]; human beings, oral administration): ≤ 4 h
- solubility in water [5]: about 0.005 mg per ml
